Patent US11083725B2 (priority 2014, dated 2021)

Tested on: NHBE cells
Test: Biolog metabolic array: substrate use by NHBE cells with or without CA09 infection
Format: cell-based, human
Settings: for Substrate use, 590 nm absorbance normalized to zero hour, 0 hr: Biolog PMM2, 0 hr; for Substrate use, 590 nm absorbance normalized to zero hour, 1 hr: Biolog PMM2, 1 hr; for Substrate use, 590 nm absorbance normalized to zero hour, 5 hr: Biolog PMM2, 5 hr; for Substrate use, 590 nm absorbance normalized to zero hour, 7 hr: Biolog PMM2, 7 hr
[1] = Control (uninfected) NHBE cells
[2] = Virus (CA09-infected, MOI 1) NHBE cells
[3] = Virus: CA09-infected NHBE cells, MOI 1, Biolog PMM2
[4] = Virus (CA09-infected NHBE cells, MOI 1)

Row | SMILES | 590 nm absorbance normalized to zero hour (substrate use), 1 hr [1] | 590 nm absorbance normalized to zero hour (substrate use), 2 hr [1] | 590 nm absorbance normalized to zero hour (substrate use), 3 hr [1] | 590 nm absorbance normalized to zero hour (substrate use), 4 hr [1] | 590 nm absorbance normalized to zero hour (substrate use), 6 hr [1] | 590 nm absorbance normalized to zero hour (substrate use), 8 hr [1] | 590 nm absorbance normalized to zero hour (substrate use), 9 hr [1] | 590 nm absorbance normalized to zero hour (substrate use), 10 hr [1] | 590 nm absorbance normalized to zero hour (substrate use), 11 hr [1] | Substrate use, 590 nm absorbance normalized to zero hour, 1 hr [1] | Substrate use, 590 nm absorbance normalized to zero hour, 5 hr [1] | Substrate use, 590 nm absorbance normalized to zero hour, 7 hr [1] | 590 nm absorbance normalized to zero hour (substrate use), 1 hr [3] | 590 nm absorbance normalized to zero hour (substrate use), 2 hr [3] | 590 nm absorbance normalized to zero hour (substrate use), 3 hr [3] | 590 nm absorbance normalized to zero hour (substrate use), 4 hr [3] | 590 nm absorbance normalized to zero hour (substrate use), 5 hr [3] | 590 nm absorbance normalized to zero hour (substrate use), 6 hr [3] | 590 nm absorbance normalized to zero hour (substrate use), 7 hr [3] | 590 nm absorbance normalized to zero hour (substrate use), 8 hr [3] | also measured
1 | CO[C@@H]1OC[C@@H](O)[C@H](O)[C@H]1O [b-Methyl-D-Xyloside] | 1.53 | 6.40 | 1.59 | 1.73 | 1.14 | 4.02 | 2.33 | 2.61 | 3.03 | 1.53 | 2.08 | 4.46 | 1.92 | 2.38 | 2.79 | 2.82 | 3.12 | 3.28 | 3.39 | 3.52 | 590 nm absorbance normalized to zero hour (substrate use), 0 hr [1]: 1.00; Substrate use, 590 nm absorbance normalized to zero hour, 0 hr [1]: 1.00; 590 nm absorbance normalized to zero hour (substrate use), 0 hr [2]: 1.00; 590 nm absorbance normalized to zero hour (substrate use), 1 hr [2]: 1.92; 590 nm absorbance normalized to zero hour (substrate use), 2 hr [2]: 2.38; 590 nm absorbance normalized to zero hour (substrate use), 3 hr [2]: 2.79; 590 nm absorbance normalized to zero hour (substrate use), 4 hr [2]: 2.82; 590 nm absorbance normalized to zero hour (substrate use), 5 hr [2]: 3.12; 590 nm absorbance normalized to zero hour (substrate use), 6 hr [2]: 3.28; 590 nm absorbance normalized to zero hour (substrate use), 7 hr [2]: 3.39; 590 nm absorbance normalized to zero hour (substrate use), 8 hr [2]: 3.52; 590 nm absorbance normalized to zero hour (substrate use), 9 hr [2]: 3.77; 590 nm absorbance normalized to zero hour (substrate use), 10 hr [2]: 3.87; 590 nm absorbance normalized to zero hour (substrate use), 11 hr [2]: 4.01; 590 nm absorbance normalized to zero hour (substrate use), 0 hr [3]: 1.00; 590 nm absorbance normalized to zero hour (substrate use), 9 hr [3]: 3.77; 590 nm absorbance normalized to zero hour (substrate use), 10 hr [3]: 3.87; 590 nm absorbance normalized to zero hour (substrate use), 11 hr [3]: 4.01
2 | O=C(CO)[C@@H](O)[C@H](O)[C@@H](O)CO [L-Sorbose] | 1.57 | 2.05 | 2.28 | 2.38 | 4.12 | 2.81 | 2.80 | 3.02 | 2.98 | 1.57 | 2.79 | 2.84 | 0.18 | 0.23 | 0.26 | 0.28 | 0.32 | 0.34 | 0.37 | 0.38 | 590 nm absorbance normalized to zero hour (substrate use), 0 hr [1]: 1.00; Substrate use, 590 nm absorbance normalized to zero hour, 0 hr [1]: 1.00; 590 nm absorbance normalized to zero hour (substrate use), 0 hr [4]: 1.00; 590 nm absorbance normalized to zero hour (substrate use), 1 hr [4]: 0.18; 590 nm absorbance normalized to zero hour (substrate use), 2 hr [4]: 0.23; 590 nm absorbance normalized to zero hour (substrate use), 3 hr [4]: 0.26; 590 nm absorbance normalized to zero hour (substrate use), 4 hr [4]: 0.28; 590 nm absorbance normalized to zero hour (substrate use), 5 hr [4]: 0.32; 590 nm absorbance normalized to zero hour (substrate use), 6 hr [4]: 0.34; 590 nm absorbance normalized to zero hour (substrate use), 7 hr [4]: 0.37; 590 nm absorbance normalized to zero hour (substrate use), 8 hr [4]: 0.38; 590 nm absorbance normalized to zero hour (substrate use), 9 hr [4]: 0.41; 590 nm absorbance normalized to zero hour (substrate use), 10 hr [4]: 0.41; 590 nm absorbance normalized to zero hour (substrate use), 11 hr [4]: 0.48; 590 nm absorbance normalized to zero hour (substrate use), 0 hr [3]: 1.00; 590 nm absorbance normalized to zero hour (substrate use), 9 hr [3]: 0.41; 590 nm absorbance normalized to zero hour (substrate use), 10 hr [3]: 0.41; 590 nm absorbance normalized to zero hour (substrate use), 11 hr [3]: 0.48
3 | CCC(=O)O [Propionic Acid] | 1.39 | 1.55 | 1.71 | 1.74 | 0.17 | 1.84 | 1.99 | 1.15 | 1.23 | 1.39 | 1.91 | 1.75 | 1.23 | 0.70 | 0.83 | 0.93 | 1.08 | 1.15 | 1.17 | 1.18 | 590 nm absorbance normalized to zero hour (substrate use), 1 hr [2]: 1.23; 590 nm absorbance normalized to zero hour (substrate use), 2 hr [2]: 0.70; 590 nm absorbance normalized to zero hour (substrate use), 3 hr [2]: 0.83; 590 nm absorbance normalized to zero hour (substrate use), 4 hr [2]: 0.93; 590 nm absorbance normalized to zero hour (substrate use), 5 hr [2]: 1.08; 590 nm absorbance normalized to zero hour (substrate use), 6 hr [2]: 1.15; 590 nm absorbance normalized to zero hour (substrate use), 7 hr [2]: 1.17; 590 nm absorbance normalized to zero hour (substrate use), 8 hr [2]: 1.18; 590 nm absorbance normalized to zero hour (substrate use), 9 hr [2]: 1.32; 590 nm absorbance normalized to zero hour (substrate use), 10 hr [2]: 1.11; 590 nm absorbance normalized to zero hour (substrate use), 11 hr [2]: 1.26; 590 nm absorbance normalized to zero hour (substrate use), 9 hr [3]: 1.32; 590 nm absorbance normalized to zero hour (substrate use), 10 hr [3]: 1.11; 590 nm absorbance normalized to zero hour (substrate use), 11 hr [3]: 1.26
